Three compounds from article PMC10096453, “One-Pot Synthesis and Evaluation of Antioxidative Stress and Anticancer Properties of an Active Chromone Derivative” (Molecules, 2023) can be followed below.

A value given as a limit tells only on which side of the number the result lay.

The nature of data set [1]: DPPH radical scavenging assay. The data set is classed as biochemical. Also noted: DPPH517nm % SA ± SD: dose or concentration left out as unconfirmed. The following applies: for DPPH517nm % SA ± SD: mean of three measurements; for EC50: read-out: DPPH517nm EC50 ± SD. The text has this:
(§1) Three in vitro antioxidant assays (DPPH, FRAP, and ABTS) were utilized to evaluate the antioxidant property of the synthesized compounds. The DPPH (α, α-diphenyl-β-picrylhydrazyl) assay is the well-known approach to determine antioxidant activity using a stable free radical DPPH, measure the absorbance change, and calculate the absorbance change in the percentage of scavenging activity. […] For example, the ferric-tripyridyltriazine (Fe^3+-TPTZ, colorless) complex is reduced to ferrous tripyridyltriazine (Fe^2+-TPTZ) at low pH and introduces a blue color with maximum absorption at 593 nm. The change in absorbance is related to antioxidant activity. However, a significant limitation of these in vitro tests is the non-physiological measurement conditions (no enzymatic condition and no transition metal ion chelating activity); therefore, the results obtained may not reflect the antioxidant activity of the source material under the biological conditions that exist in humans and animals. The ABTS assay involves a more drastic radical that is chemically produced. The use of ABTS for antioxidant activity determination of hydrophilic and lipophilic pure compounds has attracted interest due to its solubility in organic and aqueous media and stability in a wide pH range [31].
The DPPH method was followed and modified from a previous study. Trolox was used as a reference. The DPPH stock solution at a concentration of 0.625 mM was prepared in 50% ethanol and kept at 4 °C in the dark. On the day of the experiment, 0.208 mM fresh DPPH working solution was freshly prepared by further diluting with 50% ethanol. […] Each reaction was carried out in a 96-well plate, and 100 μL of test preparation and DPPH solution were added. The 96-well plate was then shaken well for 10 min and kept in the dark at room temperature for 20 min, and the absorbance was recorded at 515–517 nm. According to the method described, delocalization also results in a deep violet color and is quantified as a percentage of scavenging activity. % scavenging activity (SA) = 100 × (Asample − Ablank)/(Acontrol − Ablank)(1) where Acontrol and Asample are the absorbances of the test DPPH without and with a sample, respectively. Ablank is the absorbance of the solvent used. The EC50 values were calculated from the relationship curve of %SA versus sample concentration. The experiment was carried out at least in triplicate.

Data set [2] can be described thus: ABTS radical cation scavenging assay. Format: biochemical. The settings on record: for EC50: read-out: ABTS734nm EC50 ± SD.
Excerpt: as §1
The ABTS assay was prepared by reaction of 5 mL of a 7 mM aqueous ABTS (2,2′-azino-bis (3-ethylbenzthiazoline-6-sulphonic acid) solution and 2.45 mM potassium persulfate solution (K2S2O8). After preparation and storage in the dark for 16 h, the radical cation solution was further diluted in ethanol to absorb about 0.7 at 734 nm. Trolox and test sample solutions were prepared in stock solution with DMSO and diluted with ethanol. A solution of 100 μL of the sample was mixed with 100 μL of the ABTS reagent in a 96-well plate. The mixture was shaken in a dark place for 10 min and incubated at 37 °C for 20 min, and the absorbance was determined at 734 nm. Absorbance determinations were recorded immediately and not more than 1 h after adding the reagent. The solution without the sample was used as a blank. All the determinations were made in triplicate. The sample’s scavenging percentage was calculated from this equation: scavenging percentage = (Absorbance control − Absorbance sample) × 100/Absorbance control. EC50 values were calculated from the relationship curve of %scavenging versus sample concentration.

Data set [3] is described as follows: MTT cytotoxicity assay, HACAT cells. Format: cell-based. The following applies: human; for viability at 24 h, 100 µM: read-out: % Viability ± SD (at 100 μM) HACAT 24 h; for viability at 48 h, 100 µM: read-out: % Viability ± SD (at 100 μM) HACAT 48 h. The method, then:
HEK293, HACAT, and HeLa cells were grown in modified Eagles’ minimum essential medium (EMEM, Gibco) with 10% fetal bovine serum (FBS, Gibco), 1% of 100 U/mL streptomycin and 100 U/mL penicillin (Gibco). Cells were seeded in culture flasks and maintained in an incubator at 37 °C in a humidified atmosphere with 5% CO2. After reaching 80–90% of confluence, cells were detached by incubation with 0.25% trypsin-0.2% EDTA (Gibco) for 5 min and plated for experiments.
This study examined cell cultures of HEK293, HACAT, and HeLa cells. The cytotoxicity of the test samples was carried out by the MTT (3-(4,5-dimethylthiazol-2-yl)-2,5-diphenyltetrazolium bromide) assay. The cells were seeded in 96-well microliter plates (2.0 × 10^4 cells/well). Stock solutions of the test compounds were prepared in DMSO. After 24 h, cells were treated with different concentrations of samples and diluted with media to obtain the final desired concentration. The treated cells were then incubated at 37 °C and 5% CO2 for 24 and 48 h. After incubation, the medium was replaced with 0.05% w/v of MTT solution in PBS and further incubated for 3 h. The solution was then discarded and DMSO was added to dissolve the formed formazan crystals. Each well’s absorbance (A) was measured at 570 nm using a microplate reader (FLUOstar Omega^TM, BMG Labtech, Ortenberg, Germany). All experiments were carried out in triplicate and repeated for at least three experiments.

The next data set concerns HeLa cells. Nature of the data set: Cell migration/invasion scratch assay, HeLa. Format: cell-based. The settings on record: 100 μM, 24 h. The method, then: Cell migration in the HEK293 and the HeLa cell lines was investigated. The assay was conducted to investigate cell maintenance after being damaged. […] Cells were grown in a 24-well plate until 80% confluence and treated with 2f and 2j for 24 or 48 h compared to the untreated control. The cells in each well were then scratched to create a wound area across the center of the plates using a plastic 20 μL pipette tip. Cell images were taken immediately, and the scratch area was measured at 0, 24, and 48 h. During the experiment, the percentage of wound area was tracked as an indirect assessment. Compared to the control, the percentage of empty area change at each time point was quantified with a Nikon eclipse Ts2R inverted microscope.
Pictures were taken at the start of the experiment (0 h) and 24 h later. […] Scale bars represent 500 μm.

Another data set relates to HEK293 cells. The experiment in a line: Protection against H2O2-induced cytotoxicity (MTT). The data set is classed as cell-based. The settings on record: 100 μM; HEK293, 7.5 mM H2O2 30 min. The method, then: The synthesized compounds were examined for the ability of the compounds to protect cells exposed to oxidative stress. Six active compounds from the antioxidant test, 2b, 2d, 2e, 2f, 2j, and 3i, were selected to study the ability of oxidative stress protection. The HEK293 cells were treated with 7.5 mM hydrogen peroxide for 30 min; samples and quercetin were added, and cell viability was investigated at 12 and 24 h treatment. The percentage of viable cells in each sample was calculated using the untreated cell as 100% survival (Figure 3).
Figure 3 Protective effect of synthesized compounds on H2O2-induced cytotoxicity in cultured HEK cells (means ± SD, n = 3). Data (cell viability, measured by the MTT assay) were expressed as a percentage of the control group, which is 100%. The results were calculated from three independent experiments and are shown as mean ± SD. Compared to the H2O2 model group, the p values were calculated using a one-way ANOVA with Tukey (Turkey HSD) multiple comparison analysis; * p < 0.05 at 12 h treatment, # p < 0.05 at 24 h treatment.

In the case of `O=c1c(O)c(-c2ccc(O)c(O)c2)oc2cc(O)cc(O)c12` [Quercetin, quercetin, reference compound], in data set [1], the “DPPH517nm % SA ± SD” value was found to be 93.89 ± 2.04% and the EC50 worked out at 18.3 ± 5.62 µM. Moreover, in data set [2], the “ABTS734nm % Scavenging at 500 µM” value is given as 88.51 ± 0.80% and the EC50 was found to be 11.4 ± 0.17 µM. In addition, in data set [3], the viability at 24 h, 100 µM was found to be 85.6 ± 125% and the viability at 48 h, 100 µM was found to be 76.8 ± 2.32%. Moreover, the “Invasion of HeLa cells” value in the data set on HeLa cells is reported as “significantly inhibited the invasion of HeLa cells”.
Turning to `O=C(c1ccccc1)c1c(-c2ccccc2)oc2c(O)c(O)ccc2c1=O` [2f, 3-Benzoyl-7,8-dihydroxy-2-phenyl-4H-chromen-4-one], in data set [1], the “DPPH517nm % SA ± SD” value amounted to 93.55 ± 3.20% and the EC50 is 34.1 ± 3.28 µM. Also, in data set [2], the “ABTS734nm % Scavenging at 500 µM” value is 81.63 ± 1.80% and the 50% effective concentration (EC50) worked out at 10.2 ± 0.7 µM. In data set [3], the viability at 24 h, 100 µM worked out at 81.6 ± 8.46% and the viability at 48 h, 100 µM was 77.1 ± 5.03%. Further, in the data set on HEK293 cells, the “Protection of cells from oxidative stress” value is listed as “able to protect cells from oxidative stress”. For the same compound, the “Invasion of HeLa cells” value in the data set with HeLa cells is given as “significantly inhibited the invasion of HeLa cells”.
`O=C(Oc1ccc2c(=O)c(C(=O)c3ccccc3)c(-c3ccccc3)oc2c1O)c1ccccc1` [2j, 3-Benzoyl-8-hydroxy-4-oxo-2-phenyl-4H-chromen-7-yl benzoate]: in data set [1], the “DPPH517nm % SA ± SD” value came out at 92.88 ± 0.46% and the EC50 stood at 49.9 ± 11 µM. In addition, in data set [2], the “ABTS734nm % Scavenging at 500 µM” value is >95% and the EC50 came to 22.2 ± 0.39 µM. Moreover, in data set [3], the viability at 24 h, 100 µM turned out to be 72.6 ± 5.53% and the viability at 48 h, 100 µM is 58 ± 2.63%. In the data set on HEK293 cells, the “Protection of cells from oxidative stress” value is “able to protect cells from oxidative stress”. The “Invasion of HeLa cells” value in the data set with HeLa cells is “significantly inhibited the invasion of HeLa cells”.
